Data as given in patent publication EP0550775A1, “Cephalosporin derivatives” (F. HOFFMANN-LA ROCHE AG, priority 1992, dated 1993).

Experiments:
[1] = Chemical stability (half-life) in phosphate buffer by HPLC; type: physicochemical; conditions: pH 7.4, phosphate buffer (pH7.40; 37°C)
Protocol: Chemical stability (half-life) in phosphate buffer (pH 7.40; 37°C) of some of the compounds of the present invention was determined using high performance liquid chromatography (HPLC). A Hamilton PRP-1 (250 mm x 4.1 mm) column was used with UV detection at 280 nm. The mobile phase used consisted of a 0.01 M solution of tetradecyltrimethylammonium bromide in a mixture of 70% 0.072M phosphate buffer (pH 8.2) and 30% acetonitrile. In some experiments, minor adjustments to the pH and in the acetonitrile concentration were made to improve resolutions.

Staph. aureus 67 = test: In vitro MIC, Agar Dilution Method; type: cell-based
Protocol: (§1) In vitro activity of the compounds of the present invention was measured by the Minimum Inhibitory Concentration (MIC) in micrograms/ml utilizing the Agar Dilution Method, which is well known in the art, against a variety of gram-negative and gram-positive organisms.

Str. pneumoniae 6301 = test: In vitro MIC, Agar Dilution Method; type: cell-based
Protocol: as §1

Str. pyogenes 4 = test: In vitro MIC, Agar Dilution Method; type: cell-based
Protocol: as §1

Enter. cloacae 5699 = test: In vitro MIC, Agar Dilution Method; type: cell-based
Protocol: as §1

K. pneumoniae A = test: In vitro MIC, Agar Dilution Method; type: cell-based
Protocol: as §1

Prot. mirabilis 90 = test: In vitro MIC, Agar Dilution Method; type: cell-based
Protocol: as §1

Str. faecalis ATCC 29212 = test: In vitro MIC, Agar Dilution Method; type: cell-based
Protocol: as §1

Ser. marcescens 1071 = test: In vitro MIC, Agar Dilution Method; type: cell-based
Protocol: as §1

E. coli 257 = test: microbe, parasite or virus in culture; type: cell-based; conditions: agar dilution
Protocol: as §1

E. coli TEM-1 = test: microbe, parasite or virus in culture; type: cell-based; conditions: agar dilution
Protocol: as §1

Enter. cloacae P99 = test: microbe, parasite or virus in culture; type: cell-based; conditions: agar dilution
Protocol: as §1

E. coli ATCC 25922 = test: microbe, parasite or virus in culture; type: cell-based; conditions: agar dilution
Protocol: as §1

Prot. vulgaris ATCC 6380 = test: In vitro MIC, Agar Dilution Method; type: cell-based
Protocol: as §1

Staph. aureus ATCC 29213 = test: In vitro MIC, Agar Dilution Method; type: cell-based
Protocol: as §1

Staph. aureus 753 = test: In vitro MIC, Agar Dilution Method; type: cell-based
Protocol: as §1

Ps. aeruginosa 765 = test: In vitro MIC, Agar Dilution Method; type: cell-based
Protocol: as §1

Prot. vulgaris 1028 BC = test: In vitro MIC, Agar Dilution Method; type: cell-based
Protocol: as §1

[2] = system: Ps. aeruginosa ATCC 27853; test: In vitro MIC, Agar Dilution Method; type: cell-based
Protocol: as §1

Ser. marcescens SM = test: In vitro MIC, Agar Dilution Method; type: cell-based
Protocol: as §1

Staph. aureus Smith = test: In vitro MIC, Agar Dilution Method; type: cell-based
Protocol: as §1

Cit. freundi BS-16 = test: In vitro MIC, Agar Dilution Method; type: cell-based
Protocol: as §1

Ps. aeruginosa 5712 = test: In vitro MIC, Agar Dilution Method; type: cell-based
Protocol: as §1

Ps. aeruginosa 18SH = test: In vitro MIC, Agar Dilution Method; type: cell-based
Protocol: as §1

Ps. aeruginosa 8780 = test: In vitro MIC, Agar Dilution Method; type: cell-based
Protocol: as §1

Staph. aureus 1059B = test: In vitro MIC, Agar Dilution Method; type: cell-based
Protocol: as §1

[3] = Staph. aureus 67, agar dilution
[4] = Str. pneumoniae 6301, agar dilution
[5] = Enter. cloacae 5699, agar dilution
[6] = Prot. mirabilis 90, agar dilution
[7] = Str. faecalis ATCC 29212, agar dilution
[8] = Ser. marcescens 1071, agar dilution

Compound	MIC (E. coli 257) [µg/mL]	MIC (E. coli TEM-1) [µg/mL]	MIC (Enter. cloacae P99) [µg/mL]	MIC (E. coli ATCC 25922) [µg/mL]	MIC (Prot. vulgaris ATCC 6380) [µg/mL]	MIC (Staph. aureus ATCC 29213) [µg/mL]	MIC (Staph. aureus 753) [µg/mL]	MIC (Staph. aureus 67; [3]) [µg/mL]	MIC (Ps. aeruginosa 765) [µg/mL]	MIC (Prot. vulgaris 1028 BC) [µg/mL]	MIC (Str. pneumoniae 6301; [4]) [µg/mL]	MIC (Str. pyogenes 4; Str. pyogenes 4, agar dilution) [µg/mL]	MIC (Enter. cloacae 5699; [5]) [µg/mL]	MIC [2] [µg/mL]	MIC (K. pneumoniae A; K. pneumoniae A, agar dilution) [µg/mL]	MIC (Ser. marcescens SM) [µg/mL]	MIC (Staph. aureus Smith) [µg/mL]	MIC (Cit. freundi BS-16) [µg/mL]	MIC (Prot. mirabilis 90; [6]) [µg/mL]	MIC (Str. faecalis ATCC 29212; [7]) [µg/mL]	other results
O=C([O-])C1=C(CN2CCN(c3cc4c(cc3F)c(=O)c(C(=O)[O-])cn4C3CC3)CC2)CS[C@@H]2[C@H](NC(=O)C(C(=O)[O-])c3ccccc3)C(=O)N12.[Na+].[Na+].[Na+] (stereo partly drawn) [Compound F, (6R-trans)-3-[[4-(3-Carboxy-1-cyclopropyl-6-fluoro-1,4-dihydro-4-oxo-7-quinolinyl)-1-piperazinyl]methyl]-7-[(carboxyphenylacetyl)amino]-8-oxo-5-thia-1-azabicyclo[4.2.0]oct-2-ene-2-carboxylic acid sodium salt]																					half-life [1]: 228 h; MIC (Staph. aureus 67; Staphylococcus aureus, 67): 8000 µg/mL; MIC (Str. pneumoniae 6301; Streptococcus pneumoniae, 6301): 500 µg/mL; MIC (Str. pyogenes 4; Streptococcus pyogenes, 4): 500 µg/mL; MIC (Enter. cloacae 5699; Enterobacter cloacae, 5699): 500 µg/mL; MIC (K. pneumoniae A; Klebsiella pneumoniae): 1000 µg/mL; MIC (Prot. mirabilis 90; Proteus mirabilis, 90): 1000 µg/mL; MIC (Str. faecalis ATCC 29212; Enterococcus faecalis, ATCC29212): 32000 µg/mL; MIC (Ser. marcescens 1071; Serratia marcescens, 1071): 500 µg/mL
Nc1nc(/C(=N/OCC(=O)O)C(=O)N[C@@H]2C(=O)N3C(C(=O)[O-])=C(CN4CCN(c5cc6c(cc5F)c(=O)c(C(=O)O)cn6C5CC5)CC4)CS[C@H]23)cs1.[Na+] [Compound B, [6R-[6α,7β(Z)]]-7-[[(2-Amino-4-thiazolyl)[(carboxy-methoxy)imino]acetyl]amino]-3-[[4-(3-carboxy-1-cyclopropyl-6-fluoro-1,4-dihydro-4-oxo-7-quinolinyl)-1-piperazinyl]methyl]-8-oxo-5-thia-1-azabicyclo[4.2.0]oct-2-ene-2-carboxylic acid sodium salt]	250	500	250	500	250	8000	8000	32000	8000	1000	250	125	1000	16000	1000	1000	8000	1000	2000	16000	MIC (Ps. aeruginosa 5712): 32000 µg/mL; MIC (Ser. marcescens 1071; [8]): 2000 µg/mL; MIC (Ps. aeruginosa 18SH): 4000 µg/mL; MIC (Ps. aeruginosa 8780): 8000 µg/mL; MIC (Staph. aureus 1059B): 2000 µg/mL
CC(C)(O/N=C(\C(=O)N[C@@H]1C(=O)N2C(C(=O)[O-])=C(CN3CCN(c4cc5c(cc4F)c(=O)c(C(=O)O)cn5C4CC4)CC3)CS[C@H]12)c1csc(N)n1)C(=O)O.[Na+] [Compound A, [6R-[6α,7β(Z)]]-7-[[(2-Amino-4-thiazolyl)[(1-carboxy-1-methylethoxy)imino]acetyl]amino]-3-[[4-(3-carboxy-1-cyclopropyl-6-fluoro-1,4-dihydro-4-oxo-7-quinolinyl)-1-piperazinyl]methyl]-8-oxo-5-thia-1-azabicyclo[4.2.0]oct-2-ene-2-carboxylic acid sodium salt]	250	500	500	250	500	8000	8000	16000	8000	1000	250	250	1000	8000	500	1000	8000	125	2000	8000	MIC (Ps. aeruginosa 5712): 16000 µg/mL; MIC (Ser. marcescens 1071; [8]): 1000 µg/mL; MIC (Ps. aeruginosa 18SH): 2000 µg/mL; MIC (Ps. aeruginosa 8780): 8000 µg/mL; MIC (Staph. aureus 1059B): 4000 µg/mL
